Data from the supplement of paper PMC10307832.

Experiments:
Test in all cases: relative viability (nuclei count vs DMSO), 5 days (fraction); higher = more cells survive
Etoposide + OSI-027 = compound: COc1cc([C@@H]2c3cc4c(cc3[C@@H](O[C@@H]3O[C@@H]5CO[C@@H](C)O[C@H]5[C@H](O)[C@H]3O)[C@H]3COC(=O)[C@H]23)OCO4)cc(OC)c1O [Etoposide] + COc1cccc2cc(-c3nc([C@H]4CC[C@H](C(=O)O)CC4)n4ncnc(N)c34)[nH]c12 [OSI-027] (partner 0.5 µM)
Summary of the method: (§1)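 Relative viability is defined as nuclei in treated wells over nuclei in vehicle wells. Duplicate plates were run and medians reported. Lung cancer cell lines in 1536-well plates were dosed by pin tool one day after seeding, with one drug or with a fixed anchor-drug dose plus five library-drug doses (not always all listed) in √10 steps, and nuclei were counted after 5 days.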

Etoposide + Linsitinib = compound: COc1cc([C@@H]2c3cc4c(cc3[C@@H](O[C@@H]3O[C@@H]5CO[C@@H](C)O[C@H]5[C@H](O)[C@H]3O)[C@H]3COC(=O)[C@H]23)OCO4)cc(OC)c1O [Etoposide] + C[C@]1(O)C[C@@H](c2nc(-c3ccc4ccc(-c5ccccc5)nc4c3)c3c(N)nccn32)C1 [Linsitinib] (partner 1 µM)
Summary of the method: as §1

Etoposide + Alpelisib = compound: COc1cc([C@@H]2c3cc4c(cc3[C@@H](O[C@@H]3O[C@@H]5CO[C@@H](C)O[C@H]5[C@H](O)[C@H]3O)[C@H]3COC(=O)[C@H]23)OCO4)cc(OC)c1O [Etoposide] + Cc1nc(NC(=O)N2CCC[C@H]2C(N)=O)sc1-c1ccnc(C(C)(C)C(F)(F)F)c1 [Alpelisib] (partner 2 µM)
Summary of the method: as §1

Etoposide + Vorinostat = compound: COc1cc([C@@H]2c3cc4c(cc3[C@@H](O[C@@H]3O[C@@H]5CO[C@@H](C)O[C@H]5[C@H](O)[C@H]3O)[C@H]3COC(=O)[C@H]23)OCO4)cc(OC)c1O [Etoposide] + O=C(CCCCCCC(=O)Nc1ccccc1)NO [Vorinostat] (partner 1 µM)
Summary of the method: as §1

Cell Line	relative viability (Etoposide + OSI-027; first compound 0.01 µM)	relative viability (Etoposide + OSI-027; first compound 0.03162 µM)	relative viability (Etoposide + OSI-027; first compound 0.1 µM)	relative viability (Etoposide + OSI-027; first compound 0.3162 µM)	relative viability (Etoposide + OSI-027; first compound 1 µM)	relative viability (Etoposide + Linsitinib; first compound 0.01 µM)	relative viability (Etoposide + Linsitinib; first compound 0.03162 µM)	relative viability (Etoposide + Linsitinib; first compound 0.1 µM)	relative viability (Etoposide + Linsitinib; first compound 0.3162 µM)	relative viability (Etoposide + Linsitinib; first compound 1 µM)	relative viability (Etoposide + Alpelisib; first compound 0.01 µM)	relative viability (Etoposide + Alpelisib; first compound 0.03162 µM)	relative viability (Etoposide + Alpelisib; first compound 0.1 µM)	relative viability (Etoposide + Alpelisib; first compound 0.3162 µM)	relative viability (Etoposide + Alpelisib; first compound 1 µM)	relative viability (Etoposide + Vorinostat; first compound 0.01 µM)	relative viability (Etoposide + Vorinostat; first compound 0.03162 µM)	relative viability (Etoposide + Vorinostat; first compound 0.1 µM)	relative viability (Etoposide + Vorinostat; first compound 0.3162 µM)	relative viability (Etoposide + Vorinostat; first compound 1 µM)
NCI-H358	0.711	0.757	0.366	0.136	0.0875	0.622	0.792	0.561	0.202	0.181	0.873	0.809	0.646	0.246	0.159	0.663	0.508	0.411	0.107	0.0977
EPLC-272H	0.287	0.293	0.209	0.326	0.243	1.29	1.12	0.693	1.14	0.504	0.965	0.934	0.606	0.931	0.539	0.415	0.464	0.426	0.267	0.235
NCI-H1395	0.625	0.759	0.506	0.605	0.469	1	1.33	0.836	0.897	0.656	1.02	1.14	0.773	0.798	0.69	0.659	0.905	0.509	0.54	0.502
NCI-H2228	0.499	0.787	0.276	0.481	0.164	0.535	0.57	0.728	0.627	0.462	0.864	1.01	0.713	0.442	0.224	0.577	0.668	1.07	0.272	0.142
LXF-289	0.783	0.784	0.67	0.71	0.431	0.968	1.06	1	0.703	0.293	1.02	1.07	1.04	0.655	0.244	0.763	0.744	0.953	0.547	0.136
NCI-H2009	0.572	0.659	0.454	0.539	0.369	1.09	1.24	1.25	0.839	0.401	1.12	1.18	1.19	1.06	0.388	0.704	0.631	0.571	0.597	0.409
NCI-H3122	0.799	0.985	0.404	0.722	0.349	1.04	1.05	1.03	0.88	0.449	0.748	0.752	0.728	0.595	0.402	1.04	1.11	0.598	0.66	0.224
